Consider 1 compound from PMC8384862, “Identification of new target proteins of a Urotensin-II receptor antagonist using transcriptome-based drug repositioning approach” (Scientific Reports, 2021).

SMILES strings stand for the structures. Structures can show the parent of a compound that is named as a salt. Some results are limits rather than exact numbers.

The target of this assay is T1, sodium-dependent serotonin transporter (Homo sapiens, UniProt P31645).
T1 construct: gene SLC6A4; human recombinant, CHO cell membrane
T1 sequence (P31645 whole entry): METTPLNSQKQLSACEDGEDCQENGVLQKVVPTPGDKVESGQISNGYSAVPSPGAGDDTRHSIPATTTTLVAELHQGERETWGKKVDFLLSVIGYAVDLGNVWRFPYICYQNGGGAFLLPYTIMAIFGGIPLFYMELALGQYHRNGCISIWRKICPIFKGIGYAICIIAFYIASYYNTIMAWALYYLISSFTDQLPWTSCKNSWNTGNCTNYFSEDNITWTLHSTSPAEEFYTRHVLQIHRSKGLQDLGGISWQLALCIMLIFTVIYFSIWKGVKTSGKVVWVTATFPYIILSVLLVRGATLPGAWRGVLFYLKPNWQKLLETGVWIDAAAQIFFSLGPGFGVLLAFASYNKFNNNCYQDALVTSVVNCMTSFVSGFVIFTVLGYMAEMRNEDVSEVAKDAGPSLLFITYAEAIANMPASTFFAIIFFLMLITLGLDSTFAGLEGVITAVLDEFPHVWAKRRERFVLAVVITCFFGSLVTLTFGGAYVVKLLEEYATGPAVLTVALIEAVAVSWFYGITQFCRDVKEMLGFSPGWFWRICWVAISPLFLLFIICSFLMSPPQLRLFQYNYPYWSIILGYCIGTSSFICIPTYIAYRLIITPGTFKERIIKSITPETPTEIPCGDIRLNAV
Nature of the assay: radioligand displacement of [3H]imipramine on recombinant CHO cell membranes, single dose […]. The assay is classed as binding. (In general: In a radioligand displacement assay an active substance lowers the binding of a labelled ligand.)

Usually inhibition stands for the drop in the measured response relative to a control, in per cent. Regarding `CN(C)c1cccc(NC(=O)N2CCN(Cc3ccc(OC4CCNCC4)c(Br)c3)CC2)c1` [KR-37524, 4-(3-bromo-4-(piperidin-4-yloxy)benzyl)-N-(3-(dimethylamino)phenyl)piperazine-1-carboxamide dihydrochloride], the inhibition at 10 µM is more than 50%.
